The values that follow are results of earlier work, collected in US20240033249A1, “Drug Implants Containing Darolutamide and Methods of Use Thereof” (The Regents of the University of California, priority 2022, published 2024).

The conditions of the series: assuming 600 mg daily dose; systemic (e.g., oral) administration.

Each structure is given as a SMILES string.

As to `CC(O)c1cc(C(=O)N[C@@H](C)Cn2ccc(-c3ccc(C#N)c(Cl)c3)n2)[nH]n1` (stereo partly shown) [Darolutamide], the “steady state blood plasma concentration of Darolutamide” value was “about 4.79 mg/L”.
